Measurements reported in ChEMBL document CHEMBL1201862, “PubChem BioAssay data set” (2004).
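In this assay, cells in 96-well plates receive the compound at five concentrations for 48 hours. Endpoints are linearly interpolated between the surrounding concentrations. Here, GI50 denotes the concentration required for 50% inhibition of growth.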 The source made the active and inactive calls. No stated cut-off is given here; in the data, active = GI50 up to about 1.1 µM and inactive = higher.

Key:
Assay in all cases: inhibition of tumour cell growth, NCI panel, 48 h
CCRF-CEM = system: CCRF-CEM
BT-549 = system: BT-549
SW-620 = system: SW-620
OVCAR-4 = system: OVCAR-4
PC-3 = system: PC-3
SNB-19 = system: SNB-19
RXF 393 = system: RXF 393
MDA-MB-231 = system: MDA-MB-231
MDA-N = system: MDA-N
K562 = system: K562
OVCAR-3 = system: OVCAR-3
NCI/ADR-RES = system: NCI/ADR-RES
SF-295 = system: SF-295
SF-268 = system: SF-268
KM12 = system: KM12
HCT-116 = system: HCT-116
M14 = system: M14
SK-MEL-2 = system: SK-MEL-2
T47D = system: T47D

CSc1nc(-c2cc3c(c(SC)n2)CCCCC3)cc2c1CCCCC2
GI50 (CCRF-CEM): > 100 µM (inactive)
GI50 (BT-549): > 100 µM (inactive)
GI50 (SW-620): > 100 µM (inactive)
GI50 (OVCAR-4): > 100 µM (inactive)
GI50 (PC-3): > 100 µM (inactive)
GI50 (SNB-19): > 100 µM (inactive)
GI50 (RXF 393): > 100 µM (inactive)
GI50 (MDA-MB-231): > 100 µM (inactive)
GI50 (MDA-N): > 100 µM (inactive)
GI50 (K562): > 100 µM (inactive)
GI50 (OVCAR-3): > 100 µM (inactive)
GI50 (NCI/ADR-RES): > 100 µM (inactive)
GI50 (SF-295): > 100 µM (inactive)
GI50 (SF-268): 50.7 µM (inactive)
GI50 (KM12): > 100 µM (inactive)
GI50 (HCT-116): > 100 µM (inactive)
GI50 (M14): > 100 µM (inactive)
GI50 (SK-MEL-2): > 100 µM (inactive)

COc1ccc(/C=C2\C[C@H]3[C@@H]4CC=C5C[C@@H](OC(C)=O)CC[C@]5(C)[C@H]4CC[C@]3(C)C2=O)cc1OC
GI50 (CCRF-CEM): 37 µM (inactive)
GI50 (BT-549): 63.1 µM (inactive)
GI50 (SW-620): > 100 µM (inactive)
GI50 (OVCAR-4): 63.4 µM (inactive)
GI50 (PC-3): 55.1 µM (inactive)
GI50 (SNB-19): 54.8 µM (inactive)
GI50 (RXF 393): 69.5 µM (inactive)
GI50 (MDA-N): 39.9 µM (inactive)
GI50 (K562): 7.96 µM (inactive)
GI50 (OVCAR-3): > 100 µM (inactive)
GI50 (NCI/ADR-RES): 80.9 µM (inactive)
GI50 (T47D): 35.7 µM (inactive)
GI50 (SF-295): 0.47 µM (active)
GI50 (SF-268): 86.7 µM (inactive)
GI50 (KM12): 0.971 µM (active)
GI50 (HCT-116): 38.8 µM (inactive)
GI50 (M14): 66.4 µM (inactive)
GI50 (SK-MEL-2): 31.1 µM (inactive)

NC(=S)N/N=C1\NC(=O)/C(=C/c2ccc3c(c2)OCO3)S1
GI50 (BT-549): 25.1 µM (inactive)
GI50 (SW-620): 31.8 µM (inactive)
GI50 (OVCAR-4): 24.3 µM (inactive)
GI50 (SNB-19): 18 µM (inactive)
GI50 (RXF 393): 21.1 µM (inactive)
GI50 (MDA-MB-231): 25.8 µM (inactive)
GI50 (MDA-N): 27.5 µM (inactive)
GI50 (OVCAR-3): 19.2 µM (inactive)
GI50 (NCI/ADR-RES): 27.8 µM (inactive)
GI50 (T47D): 19.3 µM (inactive)
GI50 (SF-295): 36.5 µM (inactive)
GI50 (SF-268): 31.7 µM (inactive)
GI50 (KM12): 20.9 µM (inactive)
GI50 (HCT-116): 29.1 µM (inactive)
GI50 (M14): 24.5 µM (inactive)
GI50 (SK-MEL-2): 27.2 µM (inactive)

O=C1CC(C(=O)N2CCCCC2)n2c(=O)n(-c3ccccc3)c(=O)n2C1 (stereo not given)
GI50 (BT-549): > 100 µM (inactive)
GI50 (PC-3): > 100 µM (inactive)
GI50 (SNB-19): > 100 µM (inactive)
GI50 (RXF 393): > 100 µM (inactive)
GI50 (MDA-MB-231): > 100 µM (inactive)
GI50 (MDA-N): > 100 µM (inactive)
GI50 (OVCAR-3): > 100 µM (inactive)
GI50 (NCI/ADR-RES): > 100 µM (inactive)
GI50 (SF-295): > 100 µM (inactive)
GI50 (SF-268): > 100 µM (inactive)
GI50 (KM12): > 100 µM (inactive)
GI50 (HCT-116): > 100 µM (inactive)
GI50 (M14): > 100 µM (inactive)

O=c1ccn(C2OC(CO)C(P(=O)(O)O)C2O)c(=O)[nH]1 (stereo not given)
GI50 (CCRF-CEM): > 100 µM (inactive)
GI50 (BT-549): > 100 µM (inactive)
GI50 (SW-620): > 100 µM (inactive)
GI50 (OVCAR-4): > 100 µM (inactive)
GI50 (PC-3): > 100 µM (inactive)
GI50 (SNB-19): > 100 µM (inactive)
GI50 (RXF 393): > 100 µM (inactive)
GI50 (MDA-MB-231): > 100 µM (inactive)
GI50 (MDA-N): > 100 µM (inactive)
GI50 (K562): > 100 µM (inactive)
GI50 (OVCAR-3): > 100 µM (inactive)
GI50 (T47D): > 100 µM (inactive)
GI50 (SF-295): > 100 µM (inactive)
GI50 (SF-268): > 100 µM (inactive)
GI50 (KM12): > 100 µM (inactive)
GI50 (HCT-116): > 100 µM (inactive)
GI50 (M14): > 100 µM (inactive)
GI50 (SK-MEL-2): > 100 µM (inactive)

O=C1CSC(c2c[nH]c3ccccc23)N1c1ccccc1[N+](=O)[O-] (stereo not given)
GI50 (CCRF-CEM): > 100 µM (inactive)
GI50 (BT-549): > 100 µM (inactive)
GI50 (SW-620): > 100 µM (inactive)
GI50 (OVCAR-4): > 100 µM (inactive)
GI50 (PC-3): > 100 µM (inactive)
GI50 (SNB-19): > 100 µM (inactive)
GI50 (RXF 393): > 10 µM (inactive)
GI50 (MDA-MB-231): > 100 µM (inactive)
GI50 (MDA-N): > 100 µM (inactive)
GI50 (K562): > 100 µM (inactive)
GI50 (OVCAR-3): > 100 µM (inactive)
GI50 (T47D): > 100 µM (inactive)
GI50 (SF-295): > 100 µM (inactive)
GI50 (SF-268): > 100 µM (inactive)
GI50 (KM12): > 100 µM (inactive)
GI50 (HCT-116): > 100 µM (inactive)
GI50 (M14): > 100 µM (inactive)
